# Data published in patent publication US6727066B2, “Genes expressed in treated human C3A liver cell cultures” (Incyte Corporation, priority 2000, dated 2004).
# Assays:
# [1] = cited from earlier work
# [2] = tested on: human C3A liver cell cultures; test: Microarray differential expression of cDNAs in treated human C3A liver cell cultures; type: cell-based; conditions: change vs untreated C3A cells
# Excerpt: Incyte clones represent template sequences derived from the LIFESEQ GOLD assembled human sequence database (Incyte Genomics). In cases where more than one clone was available for a particular template, the 5′-most clone in the template was used on the microarray. The GENEALBUM GEM series 1-6 microarrays (Incyte Genomics) contain 52,616 array elements which represent 17,472 annotated clusters and 35,144 unannotated clusters. The HUMAN GENOME GEM series 1-3 microarrays (Incyte Genomics) contain 28,626 array elements which represent 10,068 annotated clusters and 18,558 unannotated clusters. For the UNIGEM series microarrays (Incyte Genomics), Incyte clones were mapped to non-redundant Unigene clusters (Unigene database (build 46), NCBI; Shuler (1997) J Mol Med 75:694-698), and the 5′ clone with the strongest BLAST alignment (at least 90% identity and 100 bp overlap) was chosen, verified, and used in the construction of the microarray. The UNIGEM V microarray (Incyte Genomics) contains 7075 array elements which represent 4610 annotated genes and 2,184 unannotated clusters.
# To construct microarrays, cDNAs were amplified from bacterial cells using primers complementary to vector sequences flanking the cDNA insert. […] Amplified cDNAs were then purified using […]-400 columns (APB). Purified cDNAs were immobilized on polymer-coated glass slides. Glass microscope slides (Corning, Corning N.Y.) were cleaned by ultrasound in 0.1% SDS and acetone, with extensive distilled water washes between and after treatments. Glass slides were etched in 4% hydrofluoric acid (VWR Scientific Products, West Chester Pa.), washed thoroughly in distilled water, and coated with 0.05% aminopropyl silane (Sigma Aldrich) in 95% ethanol. Coated slides were cured in a 110° C. oven. cDNAs were applied to the coated glass substrate using a procedure described in U.S. Pat. No. 5,807,522. One microliter of the cDNA at an average concentration of 100 ng/ul was loaded into the open capillary printing element by a high-speed robotic apparatus which then deposited about 5 nl of cDNA per slide.
# Microarrays were UV-crosslinked using a […] UV-crosslinker (Stratagene), and then washed at room temperature once in 0.2% SDS and three times in distilled water. Non-specific binding sites were blocked by incubation of microarrays in 0.2% casein in phosphate buffered saline (Tropix, Bedford Mass.) for 30 minutes at 60° C. followed by washes in 0.2% SDS and distilled water as before.
# Early confluent C3A cells (ATTC, Manassas Va.) were treated with captopril (0.5, 2, 48, and 60 μg/ml) for 1, 3, and 6 hours. Early confluent C3A cells were treated with enalapril (0.5, 2, 48, and 60 μg/ml) for 1, 3, and 6 hours. Early confluent C3A cells were treated with LY294002 (0.5, 2, 15, and 25 μg/ml) for 1, 3, and 6 hours. Early confluent C3A cells were starved of insulin for 3 days prior to treatment, then treated with LY294002 (10 μM) for 2, 24, 36, and 72 hours in the presence of insulin. Early confluent C3A cells were treated with DES (1, 10, and 100 μM) for 1, 3, and 6 hours. Early confluent C3A cells were treated with dexamethasone (1 and 20 μM) for 0, 2, 6, and 24 hours. Early confluent C3A cells were treated with MCA (0.5 and 10 μM) for 2, 6, and 24 hours. In all cases mRNA from untreated early confluent cells were prepared in parallel as described below.
# Cells were harvested and lysed in 1 ml of TRIZOL reagent (5×10^6 cells/ml; Life Technologies). The lysates were vortexed thoroughly and incubated at room temperature for 2-3 minutes and extracted with 0.5 ml chloroform. The extract was mixed, incubated at room temperature for 5 minutes, and centrifuged at 15,000 rpm for 15 minutes at 4° C. The aqueous layer was collected and an equal volume of isopropanol was added.
structure (smiles),measurement,setting,value
CCOC(=O)[C@H](CCc1ccccc1)N[C@@H](C)C(=O)N1CCC[C@H]1C(=O)O [Enalapril],time of peak plasma concentration,[1]; enalapril given orally,within an hour
same,oral bioavailability,"[1]; given orally, not reduced by food",about 60%
same,half-life,[1]; in vivo,1.3 h
same,expression level of cDNA clone 63038,[2],−2.97
same,expression level of cDNA clone 118501,[2],6.06
same,expression level of cDNA clone 160822,[2],2.39
same,expression level of cDNA clone 279898,[2],4.08
same,expression level of cDNA clone 630625,[2],2.51
same,expression level of cDNA clone 1308112,[2],2.14
same,expression level of cDNA clone 1368834,[2],2.43
same,expression level of cDNA clone 1379063,[2],−2.44
same,expression level of cDNA clone 1448718,[2],−3.91
same,expression level of cDNA clone 1696224,[2],3.97
same,expression level of cDNA clone 1711151,[2],2.48
same,expression level of cDNA clone 1861456,[2],−2.51
same,expression level of cDNA clone 1930235,[2],3
same,expression level of cDNA clone 1975268,[2],−2.75
same,expression level of cDNA clone 1998269,[2],2.27
same,expression level of cDNA clone 2055569,[2],−3.1
same,expression level of cDNA clone 2123516,[2],3.71
same,expression level of cDNA clone 2513883,[2],3.82
same,expression level of cDNA clone 2757583,[2],4.13
same,expression level of cDNA clone 2884613,[2],2.51
same,expression level of cDNA clone 2921991,[2],−4.67
same,expression level of cDNA clone 2933775,[2],4.73
same,expression level of cDNA clone 2955163,[2],2.33
same,expression level of cDNA clone 4556538,[2],3.02
"C[C@H](N[C@@H](CCc1ccccc1)C(=O)O)C(=O)N1CCC[C@H]1C(=O)O [Enalaprilat, enalaprilat]",plasma half-life,[1]; in vivo,about 11 hours
"Cc1ccc2cc3c(ccc4ccccc43)c3c2c1CC3 [MCA, 3-methylcholanthrene]",expression level of cDNA clone 72713,[2],3
same,expression level of cDNA clone 85606,[2],2.96
same,expression level of cDNA clone 118501,[2],4.54
same,expression level of cDNA clone 121785,[2],3.3
same,expression level of cDNA clone 136073,[2],3.1
same,expression level of cDNA clone 279898,[2],5.48
same,expression level of cDNA clone 311346,[2],4.59
same,expression level of cDNA clone 318486,[2],4.11
same,expression level of cDNA clone 408886,[2],4.93
same,expression level of cDNA clone 450856,[2],2.89
same,expression level of cDNA clone 452321,[2],4.3
same,expression level of cDNA clone 454839,[2],3.4
same,expression level of cDNA clone 462069,[2],2.41
same,expression level of cDNA clone 481402,[2],3.22
same,expression level of cDNA clone 510056,[2],5.65
same,expression level of cDNA clone 511448,[2],3.05
same,expression level of cDNA clone 560115,[2],−2.61
same,expression level of cDNA clone 604019,[2],3.28
same,expression level of cDNA clone 630625,[2],2.25
same,expression level of cDNA clone 669498,[2],−2.97
same,expression level of cDNA clone 701484,[2],2.51
same,expression level of cDNA clone 872017,[2],2.85
same,expression level of cDNA clone 1308112,[2],2.28
same,expression level of cDNA clone 1316801,[2],3.38
same,expression level of cDNA clone 1379063,[2],−3.63
same,expression level of cDNA clone 1381654,[2],2.64
same,expression level of cDNA clone 1457424,[2],2.93
same,expression level of cDNA clone 1522880,[2],2.74
same,expression level of cDNA clone 1560906,[2],3.13
same,expression level of cDNA clone 1616783,[2],2.63
same,expression level of cDNA clone 1619292,[2],−2.8
same,expression level of cDNA clone 1623214,[2],−3.12
same,expression level of cDNA clone 1630990,[2],3.34
same,expression level of cDNA clone 1696224,[2],4.4
same,expression level of cDNA clone 1756875,[2],2.99
same,expression level of cDNA clone 1786554,[2],2.67
same,expression level of cDNA clone 1833362,[2],−2.33
same,expression level of cDNA clone 1890576,[2],−3.07
same,expression level of cDNA clone 1930235,[2],2.93
same,expression level of cDNA clone 1975268,[2],−2.51
same,expression level of cDNA clone 1998269,[2],2.46
same,expression level of cDNA clone 2055867,[2],−2.67
same,expression level of cDNA clone 2120743,[2],2.97
same,expression level of cDNA clone 2123516,[2],3.83
same,expression level of cDNA clone 2195427,[2],2.32
same,expression level of cDNA clone 2232658,[2],2.25
same,expression level of cDNA clone 2252107,[2],2.44
same,expression level of cDNA clone 2293496,[2],−2.88
same,expression level of cDNA clone 2343348,[2],2.89
same,expression level of cDNA clone 2511277,[2],3.07
same,expression level of cDNA clone 2513883,[2],3.67
same,expression level of cDNA clone 2520894,[2],3.21
same,expression level of cDNA clone 2579218,[2],2.42
same,expression level of cDNA clone 2660756,[2],2.25
same,expression level of cDNA clone 2675232,[2],3.09
same,expression level of cDNA clone 2695371,[2],2.68
same,expression level of cDNA clone 2708055,[2],2.45
same,expression level of cDNA clone 2756333,[2],2.66
same,expression level of cDNA clone 2757583,[2],4.31
same,expression level of cDNA clone 2765271,[2],2.25
same,expression level of cDNA clone 2822027,[2],2.96
same,expression level of cDNA clone 2825358,[2],2.44
same,expression level of cDNA clone 2831490,[2],2.48
same,expression level of cDNA clone 2860918,[2],−3.2
same,expression level of cDNA clone 2884613,[2],2.2
same,expression level of cDNA clone 2891601,[2],2.56
same,expression level of cDNA clone 2912637,[2],−4.29
same,expression level of cDNA clone 2921991,[2],−3.43
same,expression level of cDNA clone 2955163,[2],3.24
same,expression level of cDNA clone 2956444,[2],3.04
same,expression level of cDNA clone 3074113,[2],3.03
same,expression level of cDNA clone 3108506,[2],3.02
same,expression level of cDNA clone 3158828,[2],2.67
same,expression level of cDNA clone 3222802,[2],3.23
same,expression level of cDNA clone 3225977,[2],2.59
same,expression level of cDNA clone 3381870,[2],2.3
same,expression level of cDNA clone 3407653,[2],2.7
same,expression level of cDNA clone 3472927,[2],2.77
same,expression level of cDNA clone 3493381,[2],2.62
same,expression level of cDNA clone 3606046,[2],3.24
same,expression level of cDNA clone 3792988,[2],3.23
same,expression level of cDNA clone 4019706,[2],3.55
same,expression level of cDNA clone 4070979,[2],2.44
same,expression level of cDNA clone 4091186,[2],2.64
same,expression level of cDNA clone 4092112,[2],3.55
same,expression level of cDNA clone 4203937,[2],7.13
same,expression level of cDNA clone 4246966,[2],3.03
same,expression level of cDNA clone 4254855,[2],2.3
same,expression level of cDNA clone 4284384,[2],2.73
same,expression level of cDNA clone 4287327,[2],−2.54
same,expression level of cDNA clone 4403805,[2],2.4
same,expression level of cDNA clone 4508879,[2],2.68
same,expression level of cDNA clone 4549259,[2],2.53
same,expression level of cDNA clone 4721130,[2],3.57
same,expression level of cDNA clone 5093071,[2],2.36
same,expression level of cDNA clone 5102731,[2],2.33
same,expression level of cDNA clone 5266015,[2],2.47
same,expression level of cDNA clone 5266376,[2],2.54
same,expression level of cDNA clone 5512044,[2],2.26
